Consider three sequences from article PMC7400623, “Effect of lysine side chain length on histone lysine acetyltransferase catalysis” (Scientific Reports, 2020).

One test deals with T1, MOF catalytic domain (Homo sapiens, UniProt Q9H7Z6).
T1 construct: Human MOF catalytic domain (residues 125–458 in pET19b); His-tag; made in house; host or cells: E. coli BL21(DE3)
T1 sequence (Q9H7Z6 125-458): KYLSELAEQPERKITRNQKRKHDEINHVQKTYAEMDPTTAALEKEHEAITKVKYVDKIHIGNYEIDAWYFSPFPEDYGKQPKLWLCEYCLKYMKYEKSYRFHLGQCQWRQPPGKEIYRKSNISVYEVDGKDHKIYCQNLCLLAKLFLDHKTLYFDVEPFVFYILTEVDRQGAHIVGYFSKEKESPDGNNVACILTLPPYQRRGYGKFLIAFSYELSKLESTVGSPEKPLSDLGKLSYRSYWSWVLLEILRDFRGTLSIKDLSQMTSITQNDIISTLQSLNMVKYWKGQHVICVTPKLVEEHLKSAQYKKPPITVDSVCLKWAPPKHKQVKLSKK
Description: MALDI-TOF MS kinetics assay, MOF. The format is biochemical. To be noted: for kcat^app / Km: MOF catalytic domain 570 nM (2 µM for unnatural analogs), peptide 1,050–0 µM, pH 7.4, 37 °C, MALDI-TOF MS, duplicates, value ± SD, SD; for kcat^app: AcCoA 100 µM (saturating), 50 mM HEPES, 0.1 mM EDTA, 0.01% TRITON-X; for Km: AcCoA 100 µM, read-out: Km^app; for kcat^app/Km^app: same kinetics conditions. The source says:
Kinetic analysis of bi-substrate enzymes, such as KATs, is reckoned to be challenging and dependent on many factors. Firstly, given the nature of these enzymes, the binding of one of the two substrates directly influences the binding of the other (with a direct effect on the Michaelis–Menten parameter Km). […] Therefore, to obtain data that would allow us to directly compare the catalytic properties of the selected KATs towards our selection of histone peptides bearing lysine analogs with longer side chains, two strategies to standardize our kinetic evaluation were taken: i) all the experiments were carried out with the same saturating concentrations of AcCoA and ii) only KATs catalytic domains were employed in the study. […] In contrast, kcat values decreased substantially with an increase of the side chain length, both in the K14 and K9 peptide series, and for both PCAF and GCN5 (Table 1).
Histone peptides kinetics evaluation was carried out with a MALDI-TOF MS assay under steady-state conditions[57],[58]. Histone peptides (1,050–0 µM) were incubated with AcCoA (100 µM) and the reactions were started by the addition of the enzyme (MOF 570 nM, PCAF and GCN5 50 nM) in a final volume of 20 µL in kinetic buffer (50 mM HEPES, 0.1 mM EDTA, 0.01% TRITON-X, pH = 7.4). For histone peptides bearing unnatural lysine analogs, higher concentration of enzymes was used (MOF, PCAF and GCN5 2 µM). […] AcCoA stock solutions in milli-Q water were calibrated with a NanoDrop 2000 spectrophotometer (Thermo Scientific, Waltham, MA, USA), employing the characteristic molar extinction coefficient ε260nm = 16,400 M^−1 cm^−1. Reactions were incubated at 37 °C, shaken at 750 rpm and quenched with TFA 10% in milli-Q water at different time points, within linear production of acetylated peptides extrapolated from time-course plots. All reactions were aliquoted and mixed 1:2 with a solution of α-cyano-4-hydroxycinnamic acid (CHCCA) in 1:1 MQ and ACN (0.1% TFA) and loaded onto MTP 384 polished steel target to be analyzed by UltrafleXtreme-II tandem mass spectrometer (Bruker). The amount of acetylated peptide was calculated by integration of the product peak area and divided it by the amount of unacetylated peptide, taking in account all the ionic species, at any concentration points using the FlexAnalysis software. Kinetic values were extrapolated by fitting V0 values (µM of produced peptide per minutes) and histone peptide concentrations to the Michaelis–Menten equation using the GraphPad Prism 5 software. Kinetic experiments were carried out in duplicates and final values are reported as value ± SD.

The next test concerns the target T2, MOF (KAT8) (Homo sapiens, UniProt Q9H7Z6).
T2 construct: Human MOF catalytic domain (residues 125–458 in pET19b); His-tag; made in house; host or cells: E. coli BL21(DE3)
T2 sequence (Q9H7Z6 125-458): T1 sequence (Q9H7Z6 125-458)
Description: MALDI-TOF MS enzymatic assay of MOF-catalyzed acetylation of histone peptides. The format is biochemical. To be noted: 100 µM peptide, 300 µM AcCoA, pH 8.0, 37 °C; for acetylation (conversion to acetylated peptide) by MOF: after 3 h, 2 µM MOF, 50 mM Hepes, 0.1 mM EDTA, 1 mM DTT, MALDI-TOF MS. On the procedure:
MALDI-TOF MS enzymatic assays were carried out to investigate KAT-catalyzed acetylation of synthetic histone peptides. The enzymatic activity of the recombinantly expressed human KATs was measured at different time points (2 µM KAT enzyme, 100 µM histone peptide, 300 µM AcCoA, buffer: 50 mM Hepes, 0.1 mM EDTA, 1 mM DTT, pH = 8.0, 37 °C, hereafter used as standard conditions) (Fig. 3b,c). […] It is noteworthy that diacetylation of histone peptides was not detected under our assay conditions, due to preacetylation of the secondary site on H3. […] As further control, H4 and H3 peptides containing stereochemically inverted D-lysine were synthesized.
The KAT enzymatic activity towards histone peptides was measured at different time points under standard conditions (2 µM KAT enzyme, 100 µM peptide, 300 µM AcCoA) in the reaction buffer (50 mM HEPES, 0.1 mM EDTA, 1 mM DTT, pH = 8.0). The reactions were carried out in a final volume of 50 µL and shaken up in a Thermomixer C at 750 rpm, at 37 °C. The reactions were quenched by the addition of TFA 10% in MilliQ water at different time points. All reactions were aliquoted and mixed 1:2 with a solution of α-Cyano-4-hydroxycinnamic acid (CHCCA) in 1:1 MQ and ACN (0.1% TFA) and loaded onto an MTP 384 polished steel target to be analyzed by a UltrafleXtreme-II tandem mass spectrometer (Bruker, Billerica, MA, USA).

On to “GGA K16 RHRKVLRDNIQ [H4K16, reference compound]”, for which, on MOF catalytic domain, the “kcat^app” value was found to be 0.385 ± 0.0167 s⁻¹ and the Km turned out to be 593 ± 86 µM. Also, the “kcat^app/Km^app” value on MOF catalytic domain (MOF) was found to be 648 M⁻¹ s⁻¹. In addition, on MOF (KAT8) (standard conditions: 2 µM MOF), the “time to full acetylation by MOF” value is on record as 30 min.
“GGA h2K16 RHRKVLRDNIQ [H4h2K16, 15-mer histone H4 peptide with h2K at position 16]”: at MOF catalytic domain (MOF), the “Km lower than that of H4hK16” value is given as “fourfold lower” and the “kcat^app/Km^app” value came to 12 M⁻¹ s⁻¹. Moreover, at MOF catalytic domain, the “kcat^app” value amounted to 0.001 ± 0.00017 s⁻¹ and the Km was 82.2 ± 15 µM. In addition, at MOF (KAT8), the “acetylation (conversion to acetylated peptide) by MOF” value was determined as 90%.
“GGA hK 16 RHRKVLRDNIQ [H4hK16, 15-mer histone H4 peptide with hLys at position 16]”: at MOF catalytic domain, the “kcat^app” value worked out at 0.0045 ± 0.0017 s⁻¹ and the Michaelis-Menten constant (Km) turned out to be 344 ± 99 µM. For the same sequence, the “kcat^app/Km^app” value on MOF catalytic domain (MOF) was 13 M⁻¹ s⁻¹. The “acetylation (conversion to acetylated peptide) by MOF” value at MOF (KAT8) is 95%.
